Key:
[1] = target: T1, M3 muscarinic receptor (Rattus norvegicus, UniProt P08483); assay: Inhibition of 3H-N-methylscopolamine binding to CHO cells expressing M3 muscarinic receptors; details: for IC50: read-out: IC50 (inhibition of 3H-NMS binding), CHO cells expressing M3, 0.6 nM 3H-NMS, 45 min 37° C., mean±SE of at least three assays
T1 construct: host or cells: CHO cells
Protocol: The objective of this experiment was to evaluate whether LCC interacted with muscarinic M3 receptors. CHO cells expressing M3 muscarinic receptors were obtained from the American Type Culture Collection (ATCC), MD. The interaction of LCC with the M3 receptors was determined by an assay which measures inhibition of ^3H-N-methylscopolamine (^3H-NMS) binding to the M3 receptor. […] Lithocholyltaurine and lithocholylglycine are physiological conjugates of lithocholic acid.
5×10^5 CHO cells (0.5 ml) were incubated for 45 minutes at 37° C. with 0.6 nM ^3H-NMS alone or with unlabeled ligand. Nonspecific binding was determined in the presence of 10.0 μM unlabeled NMS. The reaction was terminated by centrifuging 0.5 ml of cell suspension at 10,000 g for 7 minutes at room temperature. 100 μl of supernatant was sampled for determination of free ligand concentration, and the remaining liquid was carefully decanted. The cell pellet was washed, drained, and dissolved in 100 μl Soluene 350.

[2] = target: T1, M3 muscarinic receptor; assay: Acetylcholine-induced inositol phosphate (IP) formation in CHO-M3 cells; assay type: cell-based
Protocol: Post-receptor (downstream) actions of LCC were determined by measuring increases in inositol phosphates (IP) after incubating cells with 3H-myo-inositol. CHO cell inositol 1,4,5-triphosphate (IP3) was determined by the methods of Hu and El-Fakahany (1990, Mol. Pharmacol. 38:895-903) and Labarca et al., (1987, Methods Enzymol. 141:192-201). 5×10^4 cells/well were incubated with 1.0 μCi/ml myo-[2-^3H]inositol for 24 hour at 37° C., treated with 20 mM LiCl for 30 minutes at 37° C. Cells were then incubated with the test agents for 30 minutes at 37° C. The IP3 fraction was separated by ion-exchange chromatography (AG2 X8 resin), and the dpm in this fraction were determined by liquid scintillation.
The highest LCC concentration tested (0.1 mM) reduced ACh-induced IP production by 80%, thereby confirming competition of LCC and ACh for the same receptor, indicating interaction of LCC and ACh with the same receptor. Thus, LCC is an M3 muscarinic receptor antagonist.

T1 sequence (P08483 whole entry): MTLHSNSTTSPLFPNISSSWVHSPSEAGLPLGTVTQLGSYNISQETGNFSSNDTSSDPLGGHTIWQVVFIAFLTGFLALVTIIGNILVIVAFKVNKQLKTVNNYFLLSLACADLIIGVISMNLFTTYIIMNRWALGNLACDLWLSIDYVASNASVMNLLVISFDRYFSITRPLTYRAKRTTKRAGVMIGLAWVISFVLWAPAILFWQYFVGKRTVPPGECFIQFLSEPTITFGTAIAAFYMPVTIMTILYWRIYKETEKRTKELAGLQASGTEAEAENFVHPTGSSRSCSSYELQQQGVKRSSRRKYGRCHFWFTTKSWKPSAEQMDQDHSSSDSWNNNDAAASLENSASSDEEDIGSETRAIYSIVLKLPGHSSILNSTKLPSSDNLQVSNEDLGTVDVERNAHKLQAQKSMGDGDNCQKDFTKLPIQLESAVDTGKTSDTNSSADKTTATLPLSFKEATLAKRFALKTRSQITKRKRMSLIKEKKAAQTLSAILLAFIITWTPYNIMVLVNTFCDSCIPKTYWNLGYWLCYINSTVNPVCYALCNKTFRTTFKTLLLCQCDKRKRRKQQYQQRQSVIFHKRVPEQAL

Compound | IC50 [1] [µM] | potency relative to acetylcholine at inhibiting 3H-NMS binding ([1]; LCC vs acetylcholine) | potency relative to carbachol at inhibiting 3H-NMS binding ([1]; LCC vs carbachol) | inhibition of ACh-induced IP formation compared with equal concentrations of LCT ([2]; 10.0 μM acetylcholine) | reduction of ACh-induced IP production ([2]; 0.1 mM LCC, 10.0 μM acetylcholine) [%] | effect of agent alone on IP formation ([2]; LCC alone)
C[C@H](CCC(=O)NCC(=O)O)[C@H]1CC[C@H]2[C@@H]3CC[C@@H]4C[C@H](O)CC[C@]4(C)[C@H]3CC[C@]12C [Lithocholylglycine, reference compound] | 228 ± 41.2 |  |  |  |  | 
C[C@H](CCC(=O)OCC[N+](C)(C)C)[C@H]1CC[C@H]2[C@@H]3CC[C@@H]4C[C@H](O)CC[C@]4(C)[C@H]3CC[C@]12C [LCC, lithocholylcholine] | 6.4 ± 0.8 | about 2 times | about 60 times | overall greater extent | 80 | not alter IP formation
C[C@H](CCC(=O)NCCS(=O)(=O)O)[C@H]1CC[C@H]2[C@@H]3CC[C@@H]4C[C@H](O)CC[C@]4(C)[C@H]3CC[C@]12C [Lithocholyltaurine, lithocholyltaurine, reference compound] | 165 ± 38.5 |  |  |  |  | 

Source: patent US6624156B2, “Methods of making and method of using hybrid cholinergic agents and compositions” (Board of Trustees of the University of Arkansas, priority 2001, dated 2003)
